The source of these data is ChEMBL document CHEMBL4837239, “Identification of Thieno[3,2-d]pyrimidine Derivatives as Dual Inhibitors of Focal Adhesion Kinase and FMS-like Tyrosine Kinase 3” (J Med Chem, 2021).

Data set [1] has as its system MDA-MB-231. The data set can be described thus: Antiproliferative activity against human MDA-MB-231 cells assessed as growth inhibition measured after 72 hrs by CellTiter-Glo assay. It counts as functional.
Data set [2] has as its system HCT-116. The data set can be described thus: Antiproliferative activity against human HCT-116 cells assessed as growth inhibition measured after 72 hrs by CellTiter-Glo assay. Format: functional. (In general: In ATP-based viability assays light output follows the ATP content of the culture.)
Data set [3] has as its system A375P. The experiment in a line: (§1) Antiproliferative activity against human A375P cells assessed as growth inhibition measured after 72 hrs by CellTiter-Glo assay. Format: functional.
For data set [4], the target named is Focal adhesion kinase 1 (Homo sapiens, UniProt Q05397). The experiment in a line: Inhibition of recombinant FAK (unknown origin) by radiometric kinase assay.
The nature of data set [5]: Metabolic stability in human liver microsomes assessed as compound remaining at 1 uM measured after 1 hr. Conditions: read-out: Stabilty. It counts as ADME, Microsome.
The nature of data set [6]: Inhibition of FLT3 D835Y (unknown origin). Set-up: species or system Homo sapiens.
Data set [7] is described as follows: Inhibition of FYK Y379 mutant phosphorylation in human MDA-MB-231 cells by in-cell western blot assay. Format: cell-based.
Data set [8] concerns BaF3. The experiment in a line: Antiproliferative activity against mouse Ba/F3 cells harbouring FLT3 ITD D835Y mutant assessed as growth inhibition measured after 72 hrs by CellTiter-Glo assay. Format: functional.
For data set [9], the system named is BaF3. The data set can be described thus: Antiproliferative activity against mouse Ba/F3 cells harbouring FLT3 ITD F691I mutant assessed as growth inhibition measured after 72 hrs by CellTiter-Glo assay. Format: functional.
In data set [10] the test system is BaF3. The experiment in a line: Antiproliferative activity against mouse Ba/F3 cells harbouring FLT3 ITD F691L mutant assessed as growth inhibition measured after 72 hrs by CellTiter-Glo assay. It counts as functional.
Data set [11] relates to BaF3. The data set can be described thus: Antiproliferative activity against mouse Ba/F3 cells assessed as growth inhibition measured after 72 hrs by CellTiter-Glo assay. Format: functional.
For data set [12], the system named is BaF3. The experiment in a line: Antiproliferative activity against mouse Ba/F3 cells harbouring FLT3 D835Y mutant assessed as growth inhibition measured after 72 hrs by CellTiter-Glo assay. Format: functional.
A short description of data set [13]: as §1. It counts as functional.
Data set [14] concerns BaF3. The data set can be described thus: Antiproliferative activity against mouse Ba/F3 cells harbouring FLT3 ITD mutant assessed as growth inhibition measured after 72 hrs by CellTiter-Glo assay. Format: functional.
Data set [15] deals with CYP2C19 (Homo sapiens, UniProt P33261). The experiment in a line: Inhibition of CYP2C19 (unknown origin) at 10 uM relative to control. It counts as ADME.
Data set [16] addresses T1, CYP1A2 (Homo sapiens, UniProt P05177).
T1 sequence (P05177 whole entry): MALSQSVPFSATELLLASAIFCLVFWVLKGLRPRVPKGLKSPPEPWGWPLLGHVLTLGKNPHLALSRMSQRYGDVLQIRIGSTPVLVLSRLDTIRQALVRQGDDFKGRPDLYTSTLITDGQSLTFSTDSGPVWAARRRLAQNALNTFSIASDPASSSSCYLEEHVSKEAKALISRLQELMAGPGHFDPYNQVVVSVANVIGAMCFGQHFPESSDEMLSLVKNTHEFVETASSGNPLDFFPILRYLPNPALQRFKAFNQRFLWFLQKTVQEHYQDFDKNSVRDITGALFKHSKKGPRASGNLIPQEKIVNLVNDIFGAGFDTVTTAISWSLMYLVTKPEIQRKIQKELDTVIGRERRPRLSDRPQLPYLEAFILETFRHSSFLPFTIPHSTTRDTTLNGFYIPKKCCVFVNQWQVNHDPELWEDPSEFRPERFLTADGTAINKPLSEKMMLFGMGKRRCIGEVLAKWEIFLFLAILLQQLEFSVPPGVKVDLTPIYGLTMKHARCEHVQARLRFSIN
The data set can be described thus: Inhibition of CYP1A2 (unknown origin) at 10 uM relative to control. It counts as ADME.

The target of data set [17] is CYP2D6 (Homo sapiens, UniProt P10635). The data set can be described thus: Inhibition of CYP2D6 (unknown origin) at 10 uM relative to control. Format: ADME.
For data set [18], the target named is CYP3A4 (Homo sapiens, UniProt P08684). The data set can be described thus: Inhibition of CYP3A4 (unknown origin) at 10 uM relative to control. It counts as ADME.
Data set [19] has as its target CYP2C9 (Homo sapiens, UniProt P11712). The data set can be described thus: Inhibition of CYP2C9 (unknown origin) at 10 uM relative to control. Format: ADME.

pIC50: −log10 of the molar value. The source made the active and inactive calls. The calls are words filed in the database; no cut-off is given here. Where only a bound is given, the exact number is not on record here.

Sequence of CYP3A4 (P08684 whole entry): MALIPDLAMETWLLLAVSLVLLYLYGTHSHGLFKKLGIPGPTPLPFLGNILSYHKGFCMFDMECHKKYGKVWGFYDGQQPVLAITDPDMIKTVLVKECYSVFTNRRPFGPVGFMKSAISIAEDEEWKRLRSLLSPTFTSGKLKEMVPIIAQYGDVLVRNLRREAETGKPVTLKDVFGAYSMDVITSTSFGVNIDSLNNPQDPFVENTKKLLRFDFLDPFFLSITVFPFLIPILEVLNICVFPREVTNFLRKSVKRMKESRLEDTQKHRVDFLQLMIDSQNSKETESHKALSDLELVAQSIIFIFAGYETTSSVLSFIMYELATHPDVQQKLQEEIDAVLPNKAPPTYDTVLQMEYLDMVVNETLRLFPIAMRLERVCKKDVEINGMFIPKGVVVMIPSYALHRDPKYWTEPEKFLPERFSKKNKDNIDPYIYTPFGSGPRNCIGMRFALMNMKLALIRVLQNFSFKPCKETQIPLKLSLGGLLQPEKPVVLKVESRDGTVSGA
Sequence of CYP2C19 (P33261 whole entry): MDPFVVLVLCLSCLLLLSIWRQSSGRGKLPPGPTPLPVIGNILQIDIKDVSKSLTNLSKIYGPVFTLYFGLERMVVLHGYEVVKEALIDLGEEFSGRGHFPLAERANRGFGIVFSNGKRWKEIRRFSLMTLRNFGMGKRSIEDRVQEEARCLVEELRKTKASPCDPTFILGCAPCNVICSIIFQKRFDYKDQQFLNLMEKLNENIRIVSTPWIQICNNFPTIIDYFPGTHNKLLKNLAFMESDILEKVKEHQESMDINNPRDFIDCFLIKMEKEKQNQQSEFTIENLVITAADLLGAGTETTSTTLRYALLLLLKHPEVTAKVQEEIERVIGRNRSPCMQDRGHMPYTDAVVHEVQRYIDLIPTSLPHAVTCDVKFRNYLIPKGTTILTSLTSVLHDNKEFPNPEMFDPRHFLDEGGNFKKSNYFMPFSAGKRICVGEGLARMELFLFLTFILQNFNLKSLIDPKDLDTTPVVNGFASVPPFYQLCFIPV
Sequence of CYP2D6 (P10635 whole entry): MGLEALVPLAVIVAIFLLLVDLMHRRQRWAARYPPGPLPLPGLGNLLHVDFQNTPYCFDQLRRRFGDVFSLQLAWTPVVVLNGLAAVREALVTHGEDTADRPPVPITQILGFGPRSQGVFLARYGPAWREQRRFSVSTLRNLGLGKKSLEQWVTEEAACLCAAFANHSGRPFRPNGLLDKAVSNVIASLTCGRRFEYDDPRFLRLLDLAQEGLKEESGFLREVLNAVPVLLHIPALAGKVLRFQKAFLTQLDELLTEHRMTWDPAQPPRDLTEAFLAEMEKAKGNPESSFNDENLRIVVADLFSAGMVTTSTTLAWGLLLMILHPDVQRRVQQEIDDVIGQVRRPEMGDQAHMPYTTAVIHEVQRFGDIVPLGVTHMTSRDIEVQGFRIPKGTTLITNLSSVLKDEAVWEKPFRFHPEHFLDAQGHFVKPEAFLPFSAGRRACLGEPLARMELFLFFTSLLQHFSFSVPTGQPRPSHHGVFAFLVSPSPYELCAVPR
Sequence of CYP2C9 (P11712 whole entry): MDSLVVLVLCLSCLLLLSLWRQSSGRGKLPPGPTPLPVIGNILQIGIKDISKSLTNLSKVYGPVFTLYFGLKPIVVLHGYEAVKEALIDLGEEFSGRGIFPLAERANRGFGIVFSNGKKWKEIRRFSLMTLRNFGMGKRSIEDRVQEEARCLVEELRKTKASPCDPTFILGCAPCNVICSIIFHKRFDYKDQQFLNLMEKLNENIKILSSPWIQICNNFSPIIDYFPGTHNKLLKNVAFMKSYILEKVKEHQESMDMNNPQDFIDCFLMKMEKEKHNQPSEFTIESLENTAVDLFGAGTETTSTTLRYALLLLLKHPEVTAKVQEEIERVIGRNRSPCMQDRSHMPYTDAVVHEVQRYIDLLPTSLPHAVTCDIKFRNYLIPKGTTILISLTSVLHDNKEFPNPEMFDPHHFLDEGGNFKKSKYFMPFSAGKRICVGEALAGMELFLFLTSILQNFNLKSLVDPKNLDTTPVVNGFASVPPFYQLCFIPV
Sequence of Focal adhesion kinase 1 (Q05397 whole entry): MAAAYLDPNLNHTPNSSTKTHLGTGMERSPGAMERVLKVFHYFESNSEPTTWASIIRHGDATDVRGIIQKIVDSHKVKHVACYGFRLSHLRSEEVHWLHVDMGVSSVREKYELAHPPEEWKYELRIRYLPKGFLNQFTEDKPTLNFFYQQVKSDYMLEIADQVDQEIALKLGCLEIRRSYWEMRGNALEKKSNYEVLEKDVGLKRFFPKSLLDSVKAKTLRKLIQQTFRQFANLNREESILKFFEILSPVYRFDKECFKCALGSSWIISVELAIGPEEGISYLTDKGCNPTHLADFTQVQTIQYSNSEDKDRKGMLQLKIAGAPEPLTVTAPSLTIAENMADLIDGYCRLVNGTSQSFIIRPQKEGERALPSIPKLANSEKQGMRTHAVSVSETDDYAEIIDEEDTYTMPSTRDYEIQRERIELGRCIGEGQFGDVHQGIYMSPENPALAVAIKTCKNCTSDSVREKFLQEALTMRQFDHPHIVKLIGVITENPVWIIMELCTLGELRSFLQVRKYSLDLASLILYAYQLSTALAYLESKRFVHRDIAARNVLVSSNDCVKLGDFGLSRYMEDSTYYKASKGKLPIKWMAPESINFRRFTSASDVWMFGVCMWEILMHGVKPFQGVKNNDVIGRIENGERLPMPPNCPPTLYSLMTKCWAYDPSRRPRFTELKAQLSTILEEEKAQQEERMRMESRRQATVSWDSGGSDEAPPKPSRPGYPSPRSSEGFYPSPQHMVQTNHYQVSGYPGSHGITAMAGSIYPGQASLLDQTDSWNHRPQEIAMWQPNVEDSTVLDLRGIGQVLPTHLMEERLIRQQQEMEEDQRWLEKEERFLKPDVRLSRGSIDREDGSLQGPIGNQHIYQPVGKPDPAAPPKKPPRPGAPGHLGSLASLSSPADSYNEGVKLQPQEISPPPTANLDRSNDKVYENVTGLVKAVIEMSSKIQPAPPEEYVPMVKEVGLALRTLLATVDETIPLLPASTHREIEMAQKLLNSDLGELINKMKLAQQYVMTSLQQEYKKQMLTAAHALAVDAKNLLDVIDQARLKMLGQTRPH

What is called GI50 is the concentration giving 50% growth inhibition. One may read the pIC50 as −log10 of the IC50, conventionally taken in molar units. Turning to `CCN1CCN(c2ccc(Nc3ncc4scc(-c5ccc6ccccc6c5)c4n3)cc2)CC1`, the GI50 in [1] (Homo sapiens, MDA-MB-231) is 1380 nM; in [2] (Homo sapiens, HCT-116), 2060 nM. The GI50 result in data set [3] is “inactive”. In addition, the pIC50 in [4] was 6.90.

`COc1cc(Nc2ncc3scc(-c4cccc(NS(C)(=O)=O)c4)c3n2)cc(OC)c1OC`: in data set [5], the remaining at 1 h, 1 µM turned out to be 39.7%. Besides, the GI50 is 410 nM in [1]; 430 nM in [2]; 1.3 nM in data set [8]; 325 nM in data set [9]; 25.3 nM in data set [10]; 586 nM in data set [11]. For the same molecule, the concentration for 50% growth inhibition (GI50) in data set [12] was 1.3 nM; in data set [13], 200 nM; in data set [14], 3.1 nM. The negative logarithm of the IC50 (pIC50) was over 9.30 in data set [6], 6.59 in data set [7] and 8.15 in [4].

For orientation: inhibition means the percentage by which the read-out fell short of the control. A low value points to little suppression. In the case of `CCN1CCN(c2ccc(Nc3ncc4scc(-c5cccc(N6CCCS6(=O)=O)c5)c4n3)cc2)CC1`, the remaining at 1 h, 1 µM in data set [5] amounted to 73.4%. Also, the inhibition at 10 µM was found to be 75.7% in data set [15]; 67.9% in data set [16]; 91.3% in data set [17]; 59.6% in [18]; 74.1% in [19]. In addition, the GI50 in data set [1] (Homo sapiens, MDA-MB-231) was 530 nM; in data set [2] (Homo sapiens, HCT-116), 340 nM; in data set [8] (Mus musculus, BaF3) it was 23.2 nM; in [9] (Mus musculus, BaF3) it was 568 nM; in data set [10] (Mus musculus, BaF3) it was 223 nM; in data set [11] (Mus musculus, BaF3) it was 371 nM. Also, the GI50 in [12] (Mus musculus, BaF3) was found to be 9.4 nM; in [13] (Homo sapiens, A375P), 410 nM; in data set [14] (Mus musculus, BaF3) it was 46.3 nM. The negative logarithm of the IC50 (pIC50) was over 9.30 in data set [6] and 7.48 in [4].

Take `CS(=O)(=O)Nc1cccc(-c2csc3cnc(NCCO)nc23)c1`: the GI50 in data set [1] (Homo sapiens, MDA-MB-231) came out at 57200 nM; in [2] (Homo sapiens, HCT-116) it was 55800 nM. Also, in [3], the GI50 entry was “inactive”.

Take `CCN1CCN(c2ccc(Nc3ncc4scc(-c5ccc6cc[nH]c6c5)c4n3)cc2)CC1`: the remaining at 1 h, 1 µM in data set [5] stood at 89.3%. Besides, the inhibition at 10 µM worked out at 76.5% in data set [15]; 67.3% in data set [16]; 89.4% in [17]; 76% in data set [18]; 91.7% in data set [19]. Also, the 50% growth inhibitory concentration (GI50) in [1] (Homo sapiens, MDA-MB-231) worked out at 570 nM; in data set [2] (Homo sapiens, HCT-116), 170 nM; in data set [8] (Mus musculus, BaF3), 32.3 nM; in data set [9] (Mus musculus, BaF3), 142 nM; in data set [10] (Mus musculus, BaF3), 57.7 nM; in data set [11] (Mus musculus, BaF3) it was 647 nM. For the same molecule, the GI50 in data set [12] (Mus musculus, BaF3) is 6.2 nM; in data set [13] (Homo sapiens, A375P), 500 nM; in data set [14] (Mus musculus, BaF3), 20.8 nM. In addition, the pIC50 was over 9.30 in data set [6] and 7.27 in data set [4].

For the molecule `CCN1CCN(c2ccc(Nc3ncc4scc(-c5ccccc5)c4n3)cc2)CC1`, the remaining at 1 h, 1 µM in data set [5] amounted to 92.6%. For the same molecule, the inhibition at 10 µM is 96.5% in data set [15]; 30.9% in data set [16]; 84.1% in data set [17]; 81% in data set [18]; 92.1% in [19]. Also, the GI50 was 630 nM in [1] (Homo sapiens, MDA-MB-231); 1140 nM in [2] (Homo sapiens, HCT-116); 153 nM in data set [8] (Mus musculus, BaF3); 192 nM in [9] (Mus musculus, BaF3); 67.5 nM in [10] (Mus musculus, BaF3); 174 nM in [11] (Mus musculus, BaF3). Moreover, the GI50 in data set [12] (Mus musculus, BaF3) was 2.2 nM; in data set [13] (Homo sapiens, A375P) it was 400 nM; in [14] (Mus musculus, BaF3), 10.8 nM. In addition, the negative-log IC50 (pIC50) was over 9.30 in data set [6] and 8.00 in data set [4].

For `CCOC(=O)c1ccccc1-c1csc2cnc(Nc3ccc(N4CCN(CC)CC4)cc3)nc12`, the concentration for 50% growth inhibition (GI50) amounted to 46200 nM in data set [1] (Homo sapiens, MDA-MB-231) and 31200 nM in data set [2] (Homo sapiens, HCT-116). Moreover, in data set [3], the GI50 entry was “inactive”. Besides, the negative logarithm of the IC50 (pIC50) in data set [4] was 5.78.
